Experimental data: patent US5208152A, “Catalysts of Diels-Alder reactions, methods and catalysts therefor” (The Scripps Research Institute, priority 1992, dated 1993)

System: monoclonal catalytic antibody 1E9 (reductively methylated), secreted by hybridoma 1E9, ATCC HB 10261
Assay: Antibody-catalyzed Diels-Alder [4+2] cycloaddition/fragmentation reaction between TCTD and N-ethylmaleimide
Format: biochemical, mouse
Description: Because TCTD reacts with lysine residues on the surface of the immunoglobulins, it was necessary to reduce the nucleophilicity of the amino groups by exhaustive reductive methylation [Jentoft et al., J. Biol. Chem., 254:4359 (1979)]. […] Chemical modification of immunoglobulins in this way is likely to be of general value, as it will permit reactive molecules like epoxides, Michael acceptors or other alkylating agents to be employed as substrates for catalytic antibodies.
The methylated antibodies were assayed at 25 degrees C. for their ability to promote the Diels-Alder [4+2] cycloaddition/fragmentation reaction between TCTD and N-ethylmaleimide (NEM) in aqueous buffer (20 mM MES, 100 mM NaCl, pH 6.0) containing 10 percent acetonitrile. Cycloadditions were followed by monitoring the disappearance of TCTD at 330 nm or by analytical reverse-phase HPLC. HPLC kinetic assays were performed on a Vydac C-18 218-TP-510 reverse phase column (10 mm×25 cm, 2 mL/min, gradient elution from 100 percent H2 O to 60:40 CH3 CN:H2 O in 20 minutes, then 5 minutes at the latter solvent composition) using acetophenone as an internal standard.

SMILES	apparent kcat (NEM concentration varied, 0.61 mM TCTD held constant, 25 degrees C, 20 mM MES, 100 mM NaCl, pH 6.0, 10 percent acetonitrile) [s⁻¹]	Km (NEM concentration varied, 0.61 mM TCTD held constant, 25 degrees C, 20 mM MES, 100 mM NaCl, pH 6.0, 10 percent acetonitrile, read-out: apparent (Km)NEM) [mM]	inhibition of the catalyzed reaction (preincubation of the antibody with an equimolar amount of the inhibitor)
CCN1C(=O)C=CC1=O [NEM, N-ethylmaleimide]	0.0717 ± 0.005	21 ± 4	
CCN1C(=O)C2C(C1=O)C1(Cl)C(Cl)=C(Cl)C2(Cl)C1(Cl)Cl (stereo not drawn) [Compound 3]			stopped the oatalyzed reaction completely
